Patent US9611286B2, “Ruthenium carbon monoxide releasing molecules and uses thereof” (Alfama, Inc., priority 2011, dated 2017)

Assays:
P. berghei ANKA GFP [1] = experiment: Adjunctive/adjuvant therapy with artesunate after onset of ECM; format: in vivo, C57BL/6 mice; conditions: for parasitemia: AS alone 40 mg/Kg/day i.p. d5-d6
Protocol: Thus, the inventors decided to test Compound 1 as an adjunctive and adjuvant therapy during the acute phase of ECM. […] Therefore, the inventors assessed the combination of Compound 1 and AS on parasite clearance and clinical recovery from ECM. Two AS and Compound 1 combinations were tested: (i) Adjunctive therapy: AS and Compound 1 were administered concomitantly for 2 days after the onset of CM followed by a 3-day treatment with Compound 1 alone, or (ii) Adjuvant therapy: AS was administered on the first 2 days after CM onset followed by Compound 1 administration for 3 more days.
(§1) In order to evaluate the clinical presentation of experimental cerebral malaria, a classification was used in clinical stages from 0 to 4 (see, e.g., Bienvenu et al., Acta Trop (2008) 106:104-8; Franklin et al., Proc Natl Acad Sci USA (2011) 108:3689-94). Briefly, stage 0 indicates no detectable clinical symptoms, stage 1, ruffled fur; stage 2, ruffled fur and unbalancing; stage 3, limb paralysis and respiratory distress and stage 4, convulsions, coma or death. The mice were clinically classified before and after the treatment to evaluate the clinical recovery.
(§2) CORM-2 (Sigma-Aldrich) and Compound 2 were solubilized using 10% dimethyl sulfoxide (DMSO; Sigma-Aldrich) in PBS. CORM-3 and Compound 1 were solubilized in PBS (lx). CORM-2 solution (20 mg/kg of body weight) was administered intravenously (i.v.) according to the chosen schedules. […] As vehicle control, we used a solution of 10% DMSO in PBS administered i.v. The concentrations of CORM-2 used in the present study were based on previous reports (see, e.g., Chen et al. Am. J. Pathol. (2009) 175:422-429; Sun et al., World. J. Gastroenterol. (2008) 14:547-553). Artesunate is presented as a powder of artesunic acid. Artesunate (AS) solution was prepared by dissolving 60 mg of anhydrous artesunic acid in 1 ml of sodium bicarbonate (5%) to form sodium artesunate and then diluted in 5 ml of NaCl (0.9%). An AS solution (i.p.) was administered at 40 mg/Kg/day, as described previously (see, e.g., Bienvenu, Acta Trop (2008) 106:104-108). The AS treatment was started when the infected non-treated mice presented the clinical stage 1 for experimental cerebral malaria.

P. berghei ANKA GFP [2] = format: in vivo, C57BL/6 mice; conditions: for hyperparasitemia in protected mice (infected red blood cells): 3 weeks after infection; for effect on parasitemia: treated twice daily days 2-3, observed from about day 5 to day 8 of infection
Protocol: It has previously been shown that administration of CO by inhalation protects P. berghei ANKA infected C57BL/6 mice from developing ECM (see, e.g., Pamplona et al. Nat Med (2007) 13:703-710). The inventors questioned whether CO-RMs could mimic the protection conferred by CO inhalation in P. berghei ANKA infection. To this end, a known ruthenium CORM, Ru(CO)3Cl2, also referred to herein as CORM-2, was tested on different schedules of treatment and doses in P. berghei ANKA infected C57BL/6 mice (data not shown).
Red blood cells infected with green fluorescent protein (GFP)-transgenic P. berghei ANKA and P. berghei ANKA was used to infect mice (see, e.g., Franke-Fayard et al. Mol Biochem Parasitol (2004) 137:23-33). Cryopreserved parasites were passed once through C57BL/6 or DBA-2 mice before being used to infect experimental animals. C57BL/6 or DBA-2, 6- to 8-wk-old mice (sex matched in each experiment) were infected by intra-peritoneal (i.p.) injection of 10^6 infected RBCs. The infected mice were monitored daily for clinical symptoms of experimental cerebral malaria (ECM) including hemi- or paraplegia, head deviation, tendency to roll over on stimulation, ataxia and convulsions, or ALI, including dyspnea. Mice showing severe signs of ECM at day 5, 6 or 7 post-infection (p.i.) and ALI between days 7 and 9 were sacrificed. Parasitemia was assessed by flow cytometry for mice infected with GFP-expressing P. berghei ANKA, using tail blood, as previously described (see, e.g., Pamplona et al., Nat Med (2007) 13:703-710). Mean parasitemia is expressed as percentage of infected red blood cells. For mice infected with non-GFP P. berghei parasitemia was assessed daily by microscopic counting of Giemsa-stained thin blood smears. Mean parasitemia is expressed as percentage of infected red blood cells. Survival is expressed as percentage.
as §1, §2

[3] = cited from earlier work
Hen Egg White Lysozyme C = target: T1, Hen Egg White Lysozyme C (Gallus gallus, UniProt P00698); experiment: Hen egg white lysozyme (HEWL) assay, reactivity with proteins by LC-MS; format: binding; conditions: 10 equiv in H2O, room temperature, 10 minutes and 1 hour
T1 construct: one corresponding to the mass of native lysozyme (14305=calculated mass); from tissue; host or cells: hen egg white
T1 sequence (P00698 19-147): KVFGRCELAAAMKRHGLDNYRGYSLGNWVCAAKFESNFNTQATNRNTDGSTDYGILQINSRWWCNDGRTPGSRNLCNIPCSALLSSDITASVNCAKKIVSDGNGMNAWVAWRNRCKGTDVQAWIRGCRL
Excerpt: The hen egg white lysozyme (HEWL) assay was used to assess the reactivity of Compound 1 in the presence of proteins (see, e.g., Santos-Silva, T. et al. J Am Chem Soc (2011) 133, 1192-1195). This paper describes the interactions of CORM-3 with plasma proteins. CORM-3 reacts rapidily with proteins, losing chloride ion, glycinate, and one CO ligand. […] It was observed that CORM-3 reacts faster and has a much weaker efficacy than Compound 1 in this ECM treatment.
Liquid chromatography-mass spectrometry (LC-MS) was performed on a Micromass Quattro API instrument (ESI-TOF-MS) coupled to a Waters Alliance 2795 HPLC using a MassPREP On-Line Desalting Cartridge. […]
Hen Egg White Lysozyme C (PDB code 3b61; UniProtKB/Swiss-Prot code P00698). […] Quantitative determination of lysozyme-ligand binding in the solution and gas phases by electrospray ionisation mass spectrometry follows Veros et al., Rapid Commun. […] A 50 μL aliquot was analyzed by LC-MS (calculated average isotopic mass of the egg white lysozyme=14305.1).
Santos-Silva and co-workers previously describe CORM-3's reactivity towards proteins and formation of a Ru(II) dicarbonyl-lysozyme complex (see, e.g., Santos-Silva et al., J. Am. Chem. Soc. (2011) 133:1192-1195). […] 50 μL aliquots were collected and analyzed by LC-MS over the reaction time (10 minutes and 1 hour). […]

P. falciparum 3D7 = experiment: In vitro replication of P. falciparum 3D7; format: cell-based, Plasmodium falciparum; conditions: 48 h
Protocol: (§3) The data led the inventors to wonder whether Compound 1 could have a direct anti-parasitic effect on P. berghei ANKA and P. falciparum parasites. To this end, the effect of Compound 1 and the anti-malarial chloroquine (CQ) was monitored on the in vitro replication of P. falciparum 3D7 isolate and P. berghei ANKA for 48 h and 24 h, respectively.

P. berghei ANKA [4] = experiment: In vitro replication of P. berghei ANKA; format: cell-based, Plasmodium berghei; conditions: 24 h
Protocol: as §3

[5] = Brain histology (hematoxylin and eosin) in ECM; format: in vivo, C57BL/6 mice; conditions: P. berghei ANKA-infected mice
Protocol: For evaluation of histological features, mice were deeply anesthetized until cessation of breathing when infected control mice presented signs of ECM or ALI. The livers, lungs, and brains were removed and fixed in 10% buffered formalin for 24-72 h. Four-micron sections were cut from paraffin-embedded tissues and stained with hematoxylin and eosin according to standard procedures. Histological analyses were performed on a Leica microscope DM 2500 (Leica Microsystems).

P. berghei ANKA [6] = experiment: Malaria-associated acute lung injury (M-AALI) model; format: in vivo, DBA/2 mice; conditions: i.v. twice daily
Excerpt: The M-AALI model, based on the infection of DBA-2 mice with P. berghei ANKA, is characterized by dyspnea, airway obstruction, hypoxemia, pulmonary exudate and elevated VEGF levels in plasma, followed by death between days 7 and 12 after infection.
Red blood cells infected with green fluorescent protein (GFP)-transgenic P. berghei ANKA and P. berghei ANKA was used to infect mice (see, e.g., Franke-Fayard et al. Mol Biochem Parasitol (2004) 137:23-33). Cryopreserved parasites were passed once through C57BL/6 or DBA-2 mice before being used to infect experimental animals. […] The infected mice were monitored daily for clinical symptoms of experimental cerebral malaria (ECM) including hemi- or paraplegia, head deviation, tendency to roll over on stimulation, ataxia and convulsions, or ALI, including dyspnea. […] Parasitemia was assessed by flow cytometry for mice infected with GFP-expressing P. berghei ANKA, using tail blood, as previously described (see, e.g., Pamplona et al., Nat Med (2007) 13:703-710). Mean parasitemia is expressed as percentage of infected red blood cells. For mice infected with non-GFP P. berghei parasitemia was assessed daily by microscopic counting of Giemsa-stained thin blood smears. Mean parasitemia is expressed as percentage of infected red blood cells. Survival is expressed as percentage. […]

[7] = Quantification of Ru in tissues (bio-distribution); conditions: non-infected mice, i.v.
Protocol: Tricarbonyldichloro(methylthiogalactopyranoside) Ru(II) [Ru(CO)3Cl2(Gal-S-Me)], also referred to herein as Compound 1, was prepared by reacting CORM-2 with methylthiogalactopyranoside (Gal-S-Me) as described herein (see FIG. 2a and Materials and Methods section). The bio-distribution of Compound 1 in tissues was assessed by quantifying the levels of Ru and CO in the host by the method of Vreman et al., Anal Biochem (2005) 341:280-9. Liver, kidney, spleen, lung and brain tissues of non-infected mice (NI) were analyzed one hour after administration of Compound 1 and the control molecule, Compound 2 (FIG. 2b). […] The spleen is an organ that plays a crucial role in erythrophagocytosis, process important for red blood cell turnover, and recycling of iron. Erythrocytes are hydrolyzed by splenic macrophages, where the degradation of hemoglobin occurs, haem is release, and is catabolized by heme oxygenase-1 into biliverdin, carbon monoxide and ferrous iron (Fe^2+).
The tissue samples were weighed and dried at 80° C. overnight followed by 2 or more hours at 120° C. […] The Ru content was analyzed by an inductively coupled plasma-atomic emission spectrometer (ICP-AES) (model Ultima-Horiba Jobin Yvon, Longjumeau, France) using an external Ru standard method.

Compound: C[C@H]1[C@H](OC(=O)CCC(=O)O)O[C@@H]2O[C@@]3(C)CC[C@H]4[C@H](C)CC[C@@H]1[C@@]24OO3 [AS, Artesunate]
- parasitemia (P. berghei ANKA GFP [1]; day 5 post-infection): 6.8±0.3%
- parasitemia (P. berghei ANKA GFP [1]; day 9 post-infection): 0.59±0.06%
- mice that died with ECM (P. berghei ANKA GFP [1]; AS alone d5-d6): 82%
- survival (P. berghei ANKA GFP [1]; AS alone d5-d6): 18%

Compound: [C-]#[O+].[C-]#[O+].[C-]#[O+].[C-]#[O+].[C-]#[O+].[C-]#[O+].[Cl][Ru][Cl].[Cl][Ru][Cl] [CORM-2, tricarbonyldichlororuthenium(II) dimer]
- hyperparasitemia in protected mice (infected red blood cells) (P. berghei ANKA GFP [2]): > 30 % infected red blood cells
- death or symptoms of ECM (P. berghei ANKA GFP [2]; CORM-2 20 mg/kg i.v. twice daily between days 2 and 3 after infection): prevented death or symptoms of ECM in all infected C57BL/6 mice
- effect on parasitemia (P. berghei ANKA GFP [2]): statistically significant delay in parasitemia
- COHb levels in blood after in vivo administration [3]: do not elevate the carboxyhemoglobin (COHb) levels

Compound: NCC(=O)O.[C-]#[O+].[C-]#[O+].[C-]#[O+].[Cl][Ru] [CORM-3, fac-Ru(CO)3C1(glycinate)]
- hyperparasitemia in protected mice (infected red blood cells) (P. berghei ANKA GFP [2]): > 50 % infected red blood cells
- mice protected from ECM (P. berghei ANKA GFP [2]; i.v. twice daily between days 2 and 3 after infection, equimolar to CORM-2 20 mg/kg): 50%
- effect on parasitemia (P. berghei ANKA GFP [2]): statistically significant delay in parasitemia
- reactivity with HEWL (adduct formation) (Hen Egg White Lysozyme C): reacts faster
- COHb levels in blood after in vivo administration [3]: do not elevate the carboxyhemoglobin (COHb) levels

Compound: CS(C)=O.CS(C)=O.CS(C)=O.CS(C)=O.[Cl][Ru][Cl] [Compound 2, Tetrakis(dimethylsulfoxide)dichlororuthenium(II), reference compound]
- inhibition of in vitro growth (P. falciparum 3D7): absence of inhibitory effect
- inhibition of in vitro growth (P. berghei ANKA [4]): absence of inhibitory effect
- neuropathologic features in brain sections [5]: evidence of microvascular congestion with pRBC and leukocytes and hemorrhagic foci
- mice that died displaying M-AALI symptoms (P. berghei ANKA [6]): 67%

Compound: Tricarbonyldichloro(methylthiogalactopyranoside) Ru(II) [Compound 1]
- amount of Ru retained in the liver after the last injection, of the Ru administered in all doses [7]: about 13.7±0.6%
